Test results as given in patent EP0350946A2 (priority 1988, dated 1990).
Where two headings read alike, the source gives them in different places.

Columns and labels:
[1] = system: Pseudoperonospora cubensis; assay: Curative effect on downy mildew of cucumber; type: in vivo, cucumber (var: Sagamihanjiro); conditions: sprayed the day after inoculation, observed after 8 days, percent disease control
Excerpt: (§1) Typical test data indicating the excellent fungicidal activity of the amide compounds (I) are shown below. The assessment data are converted to percent disease control. 100 % means no infection; 0 % means that the plant are totally infected compared with the control plant.
A plastic pot was filled with sandy soil, and seeds of cucumber (var: Sagamihanjiro) were sowed therein, followed by cultivation in a greenhouse for 14 days. A spore suspension of Pseudoperonospora cubensis was inoculated by spreading over the seedlings of the test plants, which were then allowed to stand at 20°C overnight under a humid condition. The test compound formulated in a wettable powder according to Formulation Example 1 and diluted with water to a prescribed concentration was thoroughly sprayed over the test plants, which were further grown for 8 days under illumination and observed.

Phytophthora infestans = type: in vivo, tomato (var: Ponte Rosa); conditions: sprayed the day after inoculation, observed after 5 days, percent disease control
Plasmopara viticola = assay: Curative effect on downy mildew of grapes; type: in vivo, grapes (var: Bailey-A); conditions: sprayed the day after inoculation, observed after 8 days, percent disease control
Excerpt: as §1
A plastic pot was filled with sandy soil, and seeds of grapes (var: Bailey-A) were sowed therein, followed by cultivation in a greenhouse for 50 days. A spore suspension of Plasmopara viticola was inoculated by spreading over the seedlings at the 6 to 7 leaf-stage of the test plants, which were then allowed to stand at 20°C overnight under a humid condition. The test compound formulated in a wettable powder according to Formulation Example 1 and diluted with water to a prescribed concentration was thoroughly sprayed over the test plants, which were further grown for 8 days under illumination and observed.

Row | SMILES | Curative effect Cucumber ([1]; 100 ppm) [%] | Curative effect Cucumber ([1]; 200 ppm) [%] | Curative effect Tomato (Phytophthora infestans; 100 ppm) [%] | Curative effect Tomato (Phytophthora infestans; 200 ppm) [%] | Curative effect Grape (Plasmopara viticola; 100 ppm) [%] | Curative effect Grape (Plasmopara viticola; 200 ppm) [%]
1 | CCOC(C#N)NC(=O)c1sc(C)nc1C (centres unmarked) [Compound 2, 2-ethoxy-2-(2,4-dimethylthiazole-5-carboxamino)acetonitrile] | 95 | 100 | 95 | 100 | 100 | 100
2 | C#CCCOC(C#N)NC(=O)c1sc(C)nc1C (centres unmarked) [Compound 4, 2-(butynyl-3-oxy)-2-(2,4-dimethylthiazole-5-carboxamino)acetonitrile] |  | 100 | 90 | 100 |  | 100
3 | CCOC(C#N)NC(=O)c1sc(C)nc1CC (centres unmarked) [Compound 6, 2-ethoxy-2-(4-ethyl-2-methylthiazole-5-carboxamino)acetonitrile] |  | 100 | 100 | 100 | 100 | 100
4 | CCCOC(C#N)NC(=O)c1sc(C)nc1CC (centres unmarked) [Compound 7, 2-n-propoxy-2-(4-ethyl-2-methylthiazole-5-carboxamino)acetonitrile] | 90 | 100 | 100 | 100 | 90 | 100
5 | C#CCCOC(C#N)NC(=O)c1sc(C)nc1CC (centres unmarked) [Compound 10, 2-(butynyl-3-oxy)-2-(4-ethyl-2-methylthiazole-5-carboxamino)acetonitrile] | 95 | 100 | 95 | 100 | 90 | 100
6 | CCc1nc(C)sc1C(=O)NC(C#N)OCCC#N (centres unmarked) [Compound 11, 2-(2-cyanoethoxy)-2-(4-ethyl-2-methylthiazole-5-carboxamino)acetonitrile] | 90 | 100 | 100 | 100 | 100 | 100
7 | CCSC(C#N)NC(=O)c1sc(C)nc1CC (centres unmarked) [Compound 12, 2-ethylthio-2-(4-ethyl-2-methylthiazole-5-carboxamino)acetonitrile] | 90 | 100 | 95 | 100 | 90 | 100
8 | CCCc1nc(C)sc1C(=O)NC(C#N)OCC (centres unmarked) [Compound 13, 2-ethoxy-2-(4-n-propyl-2-methylthiazole-5-carboxamino)acetonitrile] | 90 | 95 | 90 | 95 |  | 90
9 | CCOC(C#N)NC(=O)c1sc(C)nc1C(C)C (centres unmarked) [Compound 14, 2-ethoxy-2-(4-isopropyl-2-methylthiazole-5-carboxamino)acetonitrile] | 100 | 100 | 100 | 100 | 90 | 100
